In patent US10196364B2, “Pyrimidine carboxamides as sodium channel blockers” (Purdue Pharma L.P., priority 2013, dated 2019):

target: human Nav1.7 (Homo sapiens, UniProt Q15858); assay: FLIPR sodium dye assay (CoroNa Green AM Na+ dye, primary fluorescence assay) in recombinant Nav1.7/HEK293 cells; assay type: cell-based; details: Table 6; CoroNa Green AM Na+ dye primary fluorescence assay; read-out: Nav1.7 Activity (μM) FLIPR assay IC50
Sequence (Q15858 1-1977 isoform Q15858-3): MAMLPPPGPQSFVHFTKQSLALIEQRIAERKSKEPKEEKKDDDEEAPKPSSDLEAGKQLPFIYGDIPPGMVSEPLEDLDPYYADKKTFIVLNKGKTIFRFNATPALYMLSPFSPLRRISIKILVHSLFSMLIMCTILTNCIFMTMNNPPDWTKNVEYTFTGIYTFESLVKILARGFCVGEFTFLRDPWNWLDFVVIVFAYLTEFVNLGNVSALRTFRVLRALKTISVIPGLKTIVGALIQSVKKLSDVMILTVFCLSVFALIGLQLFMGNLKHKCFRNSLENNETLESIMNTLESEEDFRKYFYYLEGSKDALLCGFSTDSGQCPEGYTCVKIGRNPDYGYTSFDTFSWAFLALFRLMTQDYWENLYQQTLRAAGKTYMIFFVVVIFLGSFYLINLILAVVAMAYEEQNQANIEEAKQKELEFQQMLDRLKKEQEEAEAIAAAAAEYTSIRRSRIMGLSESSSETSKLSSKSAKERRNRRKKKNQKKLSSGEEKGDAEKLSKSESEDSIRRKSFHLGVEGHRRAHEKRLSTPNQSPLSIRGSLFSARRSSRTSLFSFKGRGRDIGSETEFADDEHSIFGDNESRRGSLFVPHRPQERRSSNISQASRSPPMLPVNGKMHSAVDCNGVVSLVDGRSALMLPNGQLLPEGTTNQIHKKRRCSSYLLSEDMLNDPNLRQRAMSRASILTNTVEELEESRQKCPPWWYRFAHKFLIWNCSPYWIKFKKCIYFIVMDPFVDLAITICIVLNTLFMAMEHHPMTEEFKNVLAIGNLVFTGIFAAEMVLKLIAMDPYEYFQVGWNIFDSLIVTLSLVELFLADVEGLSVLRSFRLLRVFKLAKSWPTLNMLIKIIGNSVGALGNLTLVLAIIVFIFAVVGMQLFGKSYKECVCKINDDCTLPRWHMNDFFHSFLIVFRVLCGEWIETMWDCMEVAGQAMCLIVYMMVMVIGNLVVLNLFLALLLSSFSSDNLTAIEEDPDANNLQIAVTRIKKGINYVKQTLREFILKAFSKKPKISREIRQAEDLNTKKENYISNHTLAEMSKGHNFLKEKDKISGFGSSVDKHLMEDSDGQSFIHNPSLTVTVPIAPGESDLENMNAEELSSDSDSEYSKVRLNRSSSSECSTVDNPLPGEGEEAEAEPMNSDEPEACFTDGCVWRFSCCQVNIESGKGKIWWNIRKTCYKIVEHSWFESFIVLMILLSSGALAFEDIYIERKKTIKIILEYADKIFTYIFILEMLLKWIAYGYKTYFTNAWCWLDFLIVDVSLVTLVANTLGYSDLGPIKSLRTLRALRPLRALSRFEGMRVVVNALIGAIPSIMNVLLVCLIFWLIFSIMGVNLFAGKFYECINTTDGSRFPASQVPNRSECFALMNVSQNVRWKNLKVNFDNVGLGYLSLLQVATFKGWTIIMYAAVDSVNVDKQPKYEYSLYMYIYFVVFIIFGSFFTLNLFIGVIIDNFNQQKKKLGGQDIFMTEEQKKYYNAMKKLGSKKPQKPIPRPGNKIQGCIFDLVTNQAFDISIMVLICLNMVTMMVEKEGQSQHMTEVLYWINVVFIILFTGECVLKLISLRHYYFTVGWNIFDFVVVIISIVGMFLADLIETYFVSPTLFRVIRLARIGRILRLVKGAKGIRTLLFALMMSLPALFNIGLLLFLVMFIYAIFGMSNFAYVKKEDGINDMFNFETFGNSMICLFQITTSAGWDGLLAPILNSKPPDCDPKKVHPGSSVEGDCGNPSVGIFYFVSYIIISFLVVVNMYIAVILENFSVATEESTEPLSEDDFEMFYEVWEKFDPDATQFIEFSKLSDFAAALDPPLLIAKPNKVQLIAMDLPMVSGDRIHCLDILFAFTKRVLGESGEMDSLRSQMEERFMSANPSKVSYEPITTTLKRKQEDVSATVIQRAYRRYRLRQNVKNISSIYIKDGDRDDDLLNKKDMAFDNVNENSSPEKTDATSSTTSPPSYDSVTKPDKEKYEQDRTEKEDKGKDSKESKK

Going from `C=CCN1CC[C@H](Oc2cc(C(N)=O)nc(-c3ccc(Oc4ccc(F)cc4)cc3)n2)C1=O` [compound 122, (S)-6-((1-allyl-2-oxopyrrolidin-3-yl)oxy)-2-(4-(4-fluorophenoxy)phenyl)pyrimidine-4-carboxamide] to `NC(=O)c1cc(N[C@H]2CCNC2=O)nc(-c2ccc(Oc3ccc(OC(F)(F)F)cc3)cc2)n1` [compound 116, (S)-6-((2-oxopyrrolidin-3-yl)amino)-2-(4-(4-(trifluoromethoxy)phenoxy)phenyl)pyrimidine-4-carboxamide], the IC50 falls from 0.8 µM to 0.18 µM (4.4-fold).

Compared with `NC(=O)c1cc(N[C@H]2CCNC2=O)nc(N2C3CCC2CC(Oc2ccc(C(F)(F)F)cc2-c2ccncc2)C3)n1` (stereo partly drawn) [compound 154, 6-(((S)-2-oxopyrrolidin-3-yl)amino)-2-(3-(2-(pyridin-4-yl)-4-(trifluoromethyl)phenoxy)-8-azabicyclo[3.2.1]octan-8-yl)pyrimidine-4-carboxamide], `NC(=O)c1cc(N[C@H]2CCNC2=O)nc(N2C3CCC2CC(Oc2ccc(C(F)(F)F)cc2-c2cccnc2)C3)n1` (stereo partly drawn) [compound 156] is 14-fold higher in IC50: 0.13 µM for the first, 1.77 µM for the second. The first is the more potent here.

Compared with `C[C@H](Nc1cc(C(N)=O)nc(N2C3CCC2CC(Oc2ccc(F)cc2)C3)n1)C(N)=O` (stereo partly drawn) [compound 161, 6-(((S)-1-amino-1-oxopropan-2-yl)amino)-2-(3-(4-fluorophenoxy)-8-azabicyclo[3.2.1]octan-8-yl)pyrimidine-4-carboxamide], `NC(=O)c1cc(N[C@H]2CCNC2=O)nc(N2[C@@H]3CC[C@H]2C[C@H](Oc2ccc(F)cc2Cl)C3)n1` [Cpd No. 182, 2-((1R,3R,5S)-3-(2-chloro-4-fluorophenoxy)-8-azabicyclo[3.2.1]octan-8-yl)-6-(((S)-2-oxopyrrolidin-3-yl)amino)pyrimidine-4-carboxamide] is 9.3-fold lower in IC50: 3.24 µM for the first, 0.35 µM for the second.

`NC(=O)c1cc(N[C@H]2CCNC2=O)nc(-c2ccc(Oc3ccc(COCC(F)(F)F)cn3)cc2)n1` [compound 145, (S)-6-((2-oxopyrrolidin-3-yl)amino)-2-(4-((5-((2,2,2-trifluoroethoxy)methyl)pyridin-2-yl)oxy)phenyl)pyrimidine-4-carboxamide] and `NC(=O)c1cc(N[C@H]2CCNC2=O)nc(-c2ccc(Oc3ccc(OCC(F)(F)F)cn3)cc2)n1` [compound 144, (S)-6-((2-oxopyrrolidin-3-yl)amino)-2-(4-((5-(2,2,2-trifluoroethoxy)pyridin-2-yl)oxy)phenyl)pyrimidine-4-carboxamide] are within 1.5-fold of each other in IC50: 1.38 µM for the first, 1.18 µM for the second.

Compared with `NC(=O)c1cc(N[C@H]2CCNC2=O)nc(-c2ccc(Oc3ccc4c(c3)OCO4)cc2)n1` [compound 115, (S)-2-(4-(benzo[d][1,3]dioxol-5-yloxy)phenyl)-6-((2-oxopyrrolidin-3-yl)amino)pyrimnidine-4-carboxamide], `NC(=O)c1cc(N[C@H]2CCNC2=O)nc(-c2ccc(Oc3ccc(F)cc3)cc2CNC2CC2)n1` [compound 163, (S)-2-(2-((cyclopropylamino)methyl)-4-(4-fluorophenoxy)phenyl)-6-((2-oxopyrrolidin-3-yl)amino)pyrimidine-4-carboxamide] is 4.8-fold higher in IC50: 0.3 µM for the first, 1.43 µM for the second. The first is the more potent here.

Compared with `NC(=O)c1cc(N[C@H]2CCNC2=O)nc(-c2ccc(Oc3ncc(OCC(F)(F)F)cn3)cc2)n1` [compound 148, (S)-6-((2-oxopyrrolidin-3-yl)amino)-2-(4-((5-(2,2,2-trifluoroethoxy)pyrimidin-2-yl)oxy)phenyl)pyrimidine-4-carboxamide], `NC(=O)c1cc(N[C@H]2CCNC2=O)nc(-c2ccc(Oc3ccc(C(F)(F)F)cc3CN3CCC3)cc2)n1` [compound 168, (S)-2-(4-(2-(azetidin-1-ylmethyl)-4-(trifluoromethyl)phenoxy)phenyl)-6-((2-oxopyrrolidin-3-yl)amino)pyrimidine-4-carboxamide] is lower in IC50: > 20 µM for the first, 1.73 µM for the second. The second is the more potent here.

First: C[C@H](Nc1cc(C(N)=O)nc(-c2ccc(Oc3ccc(C(C)(C)C)cc3)cc2)n1)C(N)=O [compound 171, (S)-6-((1-amino-1-oxopropan-2-yl)amino)-2-(4-(4-(tert-butyl)phenoxy)phenyl)pyrimidine-4-carboxamide]
Second: CCN(CC)Cc1cc(C(F)(F)F)ccc1Oc1ccc(-c2nc(N[C@H]3CCNC3=O)cc(C(N)=O)n2)cc1 [Cpd No. 208, (S)-2-(4-(2-((diethylamino)-methyl)-4-(trifluoromethyl)-phenoxy)phenyl)-6-((2-oxopyrrolidin-3-yl)amino)pyrimidine-4-carboxamide]
The IC50 of the first is 3-fold lower: 0.25 µM for the first, 0.75 µM for the second.

Compared with `NC(=O)c1cc(N[C@H]2CCNC2=O)nc(-c2ccc(Oc3ccc(C(F)(F)F)cc3)cc2CN2CCCCC2)n1` [Cpd No. 202, (S)-6-((2-oxopyrrolidin-3-yl)amino)-2-(2-(piperidin-1-ylmethyl)-4-(4-(trifluoromethyl)-phenoxy)phenyl)pyrimidine-4-carboxamide], `NC(=O)c1cc(N[C@H]2CCNC2=O)nc(-c2ccc(Oc3ccc(C(F)(F)F)cc3)cc2CN2CCOCC2)n1` [Cpd No. 200, (S)-2-(2-(morpholinomethyl)-4-(4-(trifluoromethyl)phenoxy)-phenyl)-6-((2-oxopyrrolidin-3-yl)amino)pyrimidine-4-carboxamide] is 2.6-fold lower in IC50: 0.72 µM for the first, 0.28 µM for the second.

`NC(=O)c1cc(N[C@H]2CCNC2=O)nc(C2CCC(Oc3ccc(C(F)(F)F)cn3)CC2)n1` (stereo partly drawn) [Cpd No. 214, (S)-6-((2-oxopyrrolidin-3-yl)amino)-2-(4-((5-(trifluoromethyl)pyridin-2-yl)oxy)cyclohexyl)pyrimnidine-4-carboxamide] and `NC(=O)c1cc(O[C@H]2CCNC2=O)nc(C2CCC(Oc3ccc(C(F)(F)F)cn3)CC2)n1` (stereo partly drawn) [Cpd No. 213] are within 1.5-fold of each other in IC50: 0.93 µM for the first, 0.69 µM for the second.

First: NC(=O)c1cc(N[C@H]2CCNC2=O)nc(-c2ccc(Oc3ccc(C(F)(F)F)cc3)c(N3CCCCC3)c2)n1 [Cpd No. 209, (S)-6-((2-oxopyrrolidin-3-yl)amino)-2-(3-(piperidin-1-yl)-4-(4-(trifluoromethyl)phenoxy)-phenyl)pyrimidine-4-carboxamide]
Second: NC(=O)c1cc(N[C@H]2CCNC2=O)nc(-c2ccc(Oc3ccc(F)cc3)c(CN3CCCCC3)c2)n1 [compound 143, (S)-2-(4-(4-fluorophenoxy)-3-(piperidin-1-ylmethyl)phenyl)-6-((2-oxopyrrolidin-3-yl)amino)pyrimidine-4-carboxamide]
The IC50 of the first is higher: > 20 µM for the first, 1.3 µM for the second.

Compared with `C[C@H](Oc1cc(C(N)=O)nc(-c2ccc(Oc3ccc(C(F)(F)F)cc3CN3CCCC3)cc2)n1)C(=O)O` [Cpd No. 184, (S)-2-((6-carbamoyl-2-(4-(2-(pyrrolidin-1-ylmethyl)-4-(trifluoromethyl)phenoxy)-phenyl)pyrimidin-4-yl)oxy)propanoic acid], `NC(=O)c1cc(N[C@H]2CCNC2=O)nc(-c2ccc(Oc3ccc(F)cc3)cc2CN2CCC2)n1` [compound 167, (S)-2-(2-(azetidin-1-ylmethyl)-4-(4-fluorophenoxy)phenyl)-6-((2-oxopyrrolidin-3-yl)amino)pyrimidine-4-carboxamide] is higher in IC50: 9.72 µM for the first, > 20 µM for the second. The first is the more potent here.

Compared with `NC(=O)c1cc(N[C@H]2CCNC2=O)nc(-c2ccc(Nc3ccc(F)cc3)c(N)c2)n1` [Cpd No. 212, (S)-2-(3-amino-4-((4-fluoro-phenyl)amino)phenyl)-6-((2-oxopyrrolidin-3-yl)amino)-pyrimidine-4-carboxamide], `NC(=O)c1cc(N[C@H]2CCNC2=O)nc(N2CC3CC2CN3Cc2ccc(OC(F)(F)F)cc2)n1` (stereo partly drawn) [compound 136, 6-(((S)-2-oxopyrrolidin-3-yl)amino)-2-(5-(4-(trifluoromethoxy)benzyl)-2,5-diazabicyclo[2.2.1]heptan-2-yl)pyrimidine-4-carboxamide] is higher in IC50: 4.73 µM for the first, > 20 µM for the second. The first is the more potent here.
